In patent publication US20170086461A1, “SYNERGISTIC ANTIMICROBIAL COMPOSITION” (Dow Global Technologies LLC, priority 2015, published 2017):

Test system: Pseudomonas aeruginosa DSM # 939
Assay: Minimum Inhibitory Concentration (MIC) test with synergy index (Kull method)
Type: cell-based
Settings: single biocide acting alone; TSB broth, 30° C., 48 hours, ~1×10^6 CFU/ml
Description: The synergism of the biocides combination of the present invention was determined using the method described by Kull, F.C., et. al in Applied Microbiology 9:538-541 (1961).
The formula to calculate the synergy index (SI) is
• QA=concentration of compound A in ppm, acting alone produced an end point (growth/no growth) • Qa=concentration of compound A in ppm, in the mixture, which produced an end point (growth/no growth) • QB=concentration of compound B in ppm, acting alone produced an end point (growth/no growth) • Qb=concentration of compound B in ppm, in the mixture, which produced an end point (growth/no growth)
The Minimum Inhibitory Test (MIC) is designed to evaluate the lowest concentration of a biocide, biocide blend or biocide combination to prevent bacteria growing in a defined broth.
Minimum Inhibitory Concentration (MIC) Testing Protocol • 1. […]
The culture was maintained as a glycerol stock at −80° C. in cryovials. […] Reading of the results was carried out by measuring absorbance at 600 nm for each sample at the beginning of the test (tzero) and after incubation (tendpoint). tendpoint was chosen at 48 hours for bacteria. The difference in absorbance between tendpoint and tzero was used to assign a score (Δ>0.2 confirms growth while Δ≦0.2 confirms no growth) from which the MIC values were calculated.

Compound: Cc1cc(O)ccc1Cl [Chlorocresol, 4-chloro-3-methylphenol]
- Minimum Concentration (active ppm) to Inhibit Growth, active alone: 1539 ppm

Compound: Cn1sc2ccccc2c1=O [MBIT, 2-methyl-1,2-benzothiazol-3(2H)-one]
- Minimum Concentration (active ppm) to Inhibit Growth, active alone: 62 ppm
